Converted amounts (≈) assume the structure as drawn. Where two headings read alike, the source gives them in different places.
Columns and labels:
[1] = Metabolic stability with rat hepatocytes cell culture (C.5.b); assay type: in vitro ADME; settings: 5 μM
Method: Rat hepatocytes were isolated from male Sprague Dowley rats. The compounds were dissolved to a 5 mM stock solution in 100% DMSO and incubated at a final concentration of 5 μM for 0, 15, 30, 60 and 120 min with rat hepatocyte cell cultures (0.5 million viable cells/0.5 ml) using 24-well plates.
Samples were prepared for LC-MS by addition of two volumes of DMSO. The samples were thoroughly shaken and subsequently centrifuged at 900 g for 10 min (room temperature). All experiments were performed in triplicate. Of the resulting supernatant 50 μl was analysed by LC-MS.
For LC-MS, elution of samples was performed on a Hypersil BDS C18 column (50×4.6 mm, 5 μm, Thermohypersil, UK). The HPLC system comprised a Surveyor delivery system (Surveyor Inc., San Jose, US) equipped with a Surveyor autosampler device. Elution was with buffer A (10 mM ammoniumacetate (pH 6.9) in H2O/Acetonitrile (95:5)) and solvent B (acetonitrile) at a flow rate of 1.2 ml/min. The gradient employed was 0.5 min solvent A as start condition followed by increasing the organic phase concentration from 0% B till 95% B over 2 min in a linear fashion. This phase was kept stationary for a further 2 min and reduced again to 0% B within 0.5 min.
Total injection volume of samples was 50 μL. Column oven temperature was kept at 40° C. The LC flow was splitted for MS detection and 0.1 ml let into the source. An triple quadrupol mass spectrometer TSQ Quantum (Thermofinnigan, LaJolla, USA) mass spectrometer fitted with an ESI source was used for detection. Source voltage was set at 3800 volt, the capillary temperature at 300° C. The mass spectrometer was operated in positive ion mode in SIM adjusted to the mass of M+H with a scan width of 1 Da for quantification purposes. Instrument control, data acquisition and processing were performed using the Xcalibur software (ThermoFinnigan, San Jose, Calif., U.S.A). The metabolic stability of compounds in rat hepatocytes was expressed as in vitro half-lives.

[2] = test system: p21 promoter reporter A2780 tumour in nude mice; assay: p21 promoter induction, in vivo method, tumour fluorescence (C.6.c); settings: 20-40 mpk orally or intravenously daily during 6 days, ranked inactive, weaker, identical or better than R306465
Method: Another method tests the capacity of compounds to induce p21 as the consequence of HDAC inhibition at the cellular level. […] The reporter gene is a fluorescent protein and the expression of the reporter gene is measured as the amount of fluorescent light emitted (see example C.6.b.). The last method is an in vivo method wherein mice are used for screening the pharmaceutical activity of a compound. The above described stably transformed tumour cells can be administered to mice in an amount sufficient to effect production of a tumour. After the tumour cells had sufficient time to form a tumour, a potentially active compound can be administered to the animals and the effect of said compound on the tumour cells is evaluated by measuring the expression of the reporter gene. Incubation with pharmaceutical active compounds will result in an increase of reporter gene expression compared to the control levels (see example C.6.c.)
A selected clone was injected subcutaneous (10^7 cells/200 μl) into the flank of nude mice and a calliper measurable tumour was obtained after 12 days. […] Tumours were evaluated for fluorescence by the in-house developed Automated Whole Body Imaging System (Fluorescent stereomicroscope type Olympus® SZX12 equipped with a GFP filter and coupled to a CCD camera type JAI® CV-M90 controlled by a software package based on the IMAQ Vision Software from National Instruments®). […]

[3] = target: histone deacetylase (HeLa nuclear extracts); assay: In vitro assay for inhibition of histone deacetylase with [3H]-labelled substrate (C.1.a); assay type: biochemical; settings: [3H]-acetylated histone H4 peptide substrate
Method: As a substrate for measuring HDAC activity a synthetic peptide, i.e. the amino acids 14-21 of histone H4, was used. The substrate is biotinylated at the NH2-terminal part with a 6-aminohexanoic acid spacer, and is protected at the COOH-terminal part by an amide group and specifically [^3H]acetylated at lysine 16. The substrate, biotin-(6-aminohexanoic)Gly-Ala-([^3H]-acetyl-Lys-Arg-His-Arg-Lys-Val-NH2), was added in a buffer containing 25 mM Hepes, 1 M sucrose, 0.1 mg/ml BSA and 0.01% Triton X-100 at pH 7.4. After 30 min the deacetylation reaction was terminated by the addition of HCl and acetic acid. (final concentration 0.035 mM and 3.8 mM respectively). After stopping the reaction, the free ^3H-acetate was extracted with ethylacetate. After mixing and centrifugation, the radioactivity in an aliquot of the upper (organic) phase was counted in a β-counter.
For each experiment, controls (containing HeLa nuclear extract and DMSO without compound), a blank incubation (containing DMSO but no HeLa nuclear extract or compound) and samples (containing compound dissolved in DMSO and HeLa nuclear extract) were run in parallel. In first instance, compounds were tested at a concentration of 10^−5M. […] In each test the blank value was subtracted from both the control and the sample values. The control sample represented 100% of substrate deactylation. For each sample the radioactivity was expressed as a percentage of the mean value of the controls. […] Herein the effects of test compounds are expressed as pIC50 (the negative log value of the IC50-value) (see Table F-3).

[4] = test system: A2780 ovarian carcinoma cells; assay: Antiproliferative activity on A2780 cells, MTT (C.2); assay type: cell-based; settings: Homo sapiens, 96 h, four days of incubation, read-out: Cellular activity pIC50 C.2 (converted)
Method: All compounds tested were dissolved in DMSO and further dilutions were made in culture medium. Final DMSO concentrations never exceeded 0.1% (v/v) in cell proliferation assays. Controls contained A2780 cells and DMSO without compound and blanks contained DMSO but no cells. MTT was dissolved at 5 mg/ml in PBS. A glycine buffer comprised of 0.1 M glycine and 0.1 M NaCl buffered to pH 10.5 with NaOH (1N) was prepared (all reagents were from Merck).
The human A2780 ovarian carcinoma cells (a kind gift from Dr. T. C. Hamilton [Fox Chase Cancer Centre, Pennsylvania, USA]) were cultured in RPMI 1640 medium supplemented with 2 mM L-glutamine, 50 μg/ml gentamicin and 10% fetal calf serum. Cells were routinely kept as monolayer cultures at 37° C. in a humidified 5% CO2 atmosphere. Cells were passaged once a week using a trypsin/EDTA solution at a split ratio of 1:40. All media and supplements were obtained from Life Technologies. Cells were free of mycoplasma contamination as determined using the Gen-Probe Mycoplasma Tissue Culture kit (supplier: BioMerieux).
Cells were seeded in NUNC™ 96-well culture plates (Supplier: Life Technologies) and allowed to adhere to the plastic overnight. Densities used for plating were 1500 cells per well in a total volume of 200 μl medium. After cell adhesion to the plates, medium was changed and drugs and/or solvents were added to a final volume of 200 μl. Following four days of incubation, medium was replaced by 200 μl fresh medium and cell density and viability was assessed using an MTT-based assay. To each well, 25 μl MTT solution was added and the cells were further incubated for 2 hours at 37° C. The medium was then carefully aspirated and the blue MTT-formazan product was solubilized by addition of 25 μl glycine buffer followed by 100 μl of DMSO. […] Within an experiment, the results for each experimental condition are the mean of 3 replicate wells. For initial screening purposes, compounds were tested at a single fixed concentration of 10^−6 M. For active compounds, the experiments were repeated to establish full concentration-response curves. For each experiment, controls (containing no drug) and a blank incubation (containing no cells or drugs) were run in parallel. The blank value was subtracted from all control and sample values. For each sample, the mean value for cell growth (in absorbance units) was expressed as a percentage of the mean value for cell growth of the control. […] Herein the effects of test compounds are expressed as pIC50 (the negative log value of the IC50-value)(see Table F-3).

[5] = Solubility/stability at different pH's, chemiluminescent nitrogen detector (C.3.b); assay type: physicochemical; settings: aqueous buffer; pH = 2.3
From the text: In a second method the solubility of a compound at different pH's can be measured with the use of a Chemiluminescent Nitrogen Detector (see example C.3.b).
The solubility of a compound, at different pH's, can also be measured with the use of a chemiluminescent nitrogen detector. (see Table F-3).

COc1cc(N)c(Cl)cc1C(=O)NC1CCN(CCCOc2ccc(F)cc2)CC1OC (stereo not drawn) [Cisapride]
% metabolism (human, 15 min, 5 μM): 45%

Cn1cc(CNCC2CCN(c3ncc(C(=O)NO)cn3)CC2)c2ccccc21 [Compound 1]
in vitro half-live [1]: 81 min
tumour fluorescence ranking versus R306465 [2]: better than R306465

O=C(NO)c1cnc(N2CCC(CNCCc3c[nH]c4ccccc34)CC2)nc1 [Compound 5]
in vitro half-live [1]: 60 min
Enzymatic activity pIC50 C.1.a. [3]: 8.6
IC50 [4]: 316 nM
solubility [5]: 2000 µg/mL (≈ 5.07 mM)

O=C(NO)c1cnc(N2CCN(S(=O)(=O)c3ccc4ccccc4c3)CC2)nc1 [Compound R306465, reference compound]
in vitro half-live [1]: 8 min

CCCO [propanol]
% metabolism (15 min incubation with microsomes, compound 5 μM): 25%

From patent US9150543B2, “Substituted indolyl alkyl amino derivatives as inhibitors of histone deacetylase” (Janssen Pharmaceutica N. V., priority 2004, dated 2015)
